Experimental data as given in patent publication US8026247B2, “Bicyclic amides as kinase inhibitors” (Novartis AG, priority 2004, dated 2011).

Row | melting point [°C] | SMILES
1 | 229 to 231 | Nc1cc(S(=O)(=O)c2ccc3c(C(=O)Nc4cccc(C(F)(F)F)c4)cccc3c2)ncn1 [Example 60, 6-(6-Amino-pyrimidine-4-sulfonyl)-naphthalene-1-carboxylic acid (3-trifluoromethyl-phenyl)-amide]
2 | 197 to 199 | Nc1cc(Sc2ccc3c(C(=O)Nc4cccc(OC(F)(F)F)c4)cccc3c2)ncn1 [Example 61, 6-(6-Amino-pyrimidin-4-ylsulfanyl)-naphthalene-1-carboxylic acid (3-trifluoromethoxy-phenyl)-amide]
3 | 128 to 130 | CCCCOC(=O)c1cc(Oc2ccc3c(C(=O)Nc4cccc(C(F)(F)F)c4)cccc3c2)ccn1 [Example 64, 4-[5-(3-Trifluoromethyl-phenylcarbamoyl)-naphthalen-2-yloxy]-pyridine-2-carboxylic acid butyl ester]
4 | 175 to 177 | CNC(=O)c1cc(Oc2ccc3c(C(=O)Nc4cccc(C(F)(F)F)c4)cccc3c2)ccn1 [Example 65, 4-[5-(3-Trifluoromethyl-phenylcarbamoyl)-naphthalen-2-yloxy]-pyridine-2-carboxylic acid methylamide]
5 | 117 to 120 | NC(=O)c1cc(Oc2ccc3c(C(=O)Nc4cccc(C(F)(F)F)c4)cccc3c2)ccn1 [Example 66, 4-[5-(3-Trifluoromethyl-phenylcarbamoyl)-naphthalen-2-yloxy]-pyridine-2-carboxylic acid amide]
6 | 80 to 82 | CN(C)CCNC(=O)c1cc(Oc2ccc3c(C(=O)Nc4cccc(C(F)(F)F)c4)cccc3c2)ccn1 [Example 67, 4-[5-(3-Trifluoromethyl-phenylcarbamoyl)-naphthalen-2-yloxy]-pyridine-2-carboxylic acid (2-dimethylamino-ethyl)-amide]
7 | 222 to 224 | Nc1cc(Oc2ccc3c(C(=O)Nc4cccc(C(F)(F)F)c4)cccc3c2)ccn1 [Example 68, 6-(2-Amino-pyridin-4-yloxy)-naphthalene-1-carboxylic acid (3-trifluoromethyl-phenyl)-amide]
8 | 230 to 232 | COC(=O)Nc1cc(Oc2ccc3c(C(=O)Nc4cccc(C(F)(F)F)c4)cccc3c2)ccn1 [Example 69, {4-[5-(3-Trifluoromethyl-phenylcarbamoyl)-naphthalen-2-yloxy]-pyridin-2-yl}-carbamic acid methyl ester]
9 | 225 to 227 | Nc1nccc(CCc2ccc3c(C(=O)Nc4cccc(C(F)(F)F)c4)cccc3c2)n1 [Example 70, 6-[2-(2-Amino-pyrimidin-4-yl)-ethyl]-naphthalene-1-carboxylic acid (3-trifluoromethyl-phenyl)-amide]
10 | 217 to 220 | Nc1cc(C#Cc2ccc3c(C(=O)Nc4cccc(C(F)(F)F)c4)cccc3c2)ncn1 [Example 71, 6-(6-Amino-pyrimidin-4-ylethynyl)-naphthalene-1-carboxylic acid (3-trifluoromethyl-phenyl)-amide]
11 | 131 to 133 | CC(C)c1ccc(-n2nc(C(C)(C)C)cc2NC(=O)c2cncc3cc(Oc4cc(N)ncn4)ccc23)cc1 [Example 93, 7-(6-Amino-pyrimidin-4-yloxy)-isoquinoline-4-carboxylic acid [5-tert-butyl-2-(4-isopropyl-phenyl)-2H-pyrazol-3-yl]-amide]
12 | 124 to 126 | CC(C)(C)c1cc(NC(=O)c2cncc3cc(Oc4cc(N)ncn4)ccc23)n(-c2ccc(F)cc2)n1 [Example 94, 7-(6-Amino-pyrimidin-4-yloxy)-isoquinoline-4-carboxylic acid [5-tert-butyl-2-(4-fluoro-phenyl)-2H-pyrazol-3-yl]-amide]
13 | 255 to 257 | CNc1cc(Oc2ccc3c(C(=O)Nc4ccc(F)c(C(F)(F)F)c4)cncc3c2)ncn1 [Example 95, 7-(6-Methylamino-pyrimidin-4-yloxy)-isoquinoline-4-carboxylic acid (4-fluoro-3-trifluoromethyl-phenyl)-amide]
14 | 205 to 208 | CNc1cc(Oc2ccc3c(C(=O)Nc4cccc(C(F)(F)F)c4)cncc3c2)ncn1 [Example 96, 7-(6-Methylamino-pyrimidin-4-yloxy)-isoquinoline-4-carboxylic acid (3-trifluoromethyl-phenyl)-amide]

Continued, molecule first:

Row | SMILES | melting point [°C]
15 | CNc1cc(Oc2ccc3c(c2)OCCN3C(=O)Nc2ccc(C)c(C(F)(F)F)c2)ncn1 [Example 8, 7-(6-Methylamino-pyrimidin-4-yloxy)-2,3-dihydro-benzo[1,4]oxazine-4-carboxylic acid (4-methyl-3-trifluoromethyl-phenyl)-amide] | 180 to 182
16 | CNc1cc(Oc2ccc3c(c2)OCCN3C(=O)Nc2cccc(C(F)(F)F)c2)ncn1 [Example 9, 7-(6-Methylamino-pyrimidin-4-yloxy)-2,3-dihydro-benzo[1,4]oxazine-4-carboxylic acid (3-trifluoromethyl-phenyl)-amide] | 180
17 | Nc1nccc(Oc2ccc3c(c2)OCCN3C(=O)Nc2cccc(C(F)(F)F)c2)n1 [Example 10, 7-(2-Amino-pyrimidin-4-yloxy)-2,3-dihydro-benzo[1,4]oxazine-4-carboxylic acid (3-trifluoromethyl-phenyl)-amide] | 161 to 163
18 | Nc1nc(Cl)cc(Oc2ccc3c(C(=O)Nc4cccc(C(F)(F)F)c4)cccc3c2)n1 [Example 13, 6-(2-Amino-6-chloro-pyrimidin-4-yloxy)-naphthalene-1-carboxylic acid (3-trifluoromethyl-phenyl)-amide] | 234 to 236
19 | CC(=O)Nc1nccc(Oc2ccc3c(C(=O)Nc4cccc(C(F)(F)F)c4)cccc3c2)n1 [Example 18, 6-(2-Acetylamino-pyrimidin-4-yloxy)-naphthalene-1-carboxylic acid (3-trifluoromethyl-phenyl)-amide] | 216 to 217
20 | COC(=O)Nc1nccc(Oc2ccc3c(C(=O)Nc4cccc(C(F)(F)F)c4)cccc3c2)n1 [Example 19, 6-(2-Methoxycarbonylamino-pyrimidin-4-yloxy)-naphthalene-1-carboxylic acid (3-trifluoromethyl-phenyl)-amide] | 199 to 200
21 | Nc1cc(Oc2ccc3c(C(=O)Nc4ccc(F)c(C(F)(F)F)c4)cccc3c2)ncn1 [Example 25, 6-(6-Amino-pyrimidin-4-yloxy)-naphthalene-1-carboxylic acid (4-fluoro-3-trifluoromethyl-phenyl)-amide] | 224 to 225
22 | Nc1cc(Oc2ccc3c(C(=O)Nc4cccc(C(F)(F)F)c4)cccc3c2)ncn1 [Example 26, 6-(6-Amino-pyrimidin-4-yloxy)-naphthalene-1-carboxylic acid (3-trifluoromethyl-phenyl)-amide] | 243 to 244
23 | CNc1cc(Oc2ccc3c(C(=O)Nc4ccc(N5CCOCC5)c(C(F)(F)F)c4)cccc3c2)ncn1 [Example 40, 6-(6-Methylamino-pyrimidin-4-yloxy)-naphthalene-1-carboxylic acid (4-morpholin-4-yl-3-trifluoromethyl-phenyl)-amide] | 156 to 157
24 | N#Cc1cc(Oc2ccc3c(C(=O)Nc4cccc(C(F)(F)F)c4)cccc3c2)ncn1 [Example 43, 6-(6-Cyano-pyrimidin-4-yloxy)-naphthalene-1-carboxylic acid (3-trifluoromethyl-phenyl)-amide] | 167
25 | CC(C)NC(=O)c1cc(Oc2ccc3c(C(=O)Nc4cccc(C(F)(F)F)c4)cccc3c2)ncn1 [Example 51, 6-[5-(3-Trifluoromethyl-phenylcarbamoyl)-naphthalen-2-yloxy]-pyrimidine-4-carboxylic acid isopropylamide] | 205 to 208
26 | O=C(Nc1cccc(C(F)(F)F)c1)c1cccc2cc(Oc3cc(CCl)ncn3)ccc12 [Example 53, 6-(6-Chloromethyl-pyrimidin-4-yloxy)-naphthalene-1-carboxylic acid (3-trifluoromethyl-phenyl)-amide] | 178 to 181
27 | CNCc1cc(Oc2ccc3c(C(=O)Nc4cccc(C(F)(F)F)c4)cccc3c2)ncn1 [Example 54, 6-(6-Methylaminomethyl-pyrimidin-4-yloxy)-naphthalene-1-carboxylic acid (3-trifluoromethyl-phenyl)-amide] | 141 to 143
28 | CN(C)Cc1cc(Oc2ccc3c(C(=O)Nc4cccc(C(F)(F)F)c4)cccc3c2)ncn1 [Example 55, 6-(6-Dimethylaminomethyl-pyrimidin-4-yloxy)-naphthalene-1-carboxylic acid (3-trifluoromethyl-phenyl)-amide] | 180 to 181
29 | Nc1cc(Sc2ccc3c(C(=O)Nc4ccc(F)c(C(F)(F)F)c4)cccc3c2)ncn1 [Example 57, 6-(6-Amino-pyrimidin-4-ylsulfanyl)-naphthalene-1-carboxylic acid (4-fluoro-3-trifluoromethyl-phenyl)-amide] | 221
30 | Nc1cc(Sc2ccc3c(C(=O)Nc4cccc(C(F)(F)F)c4)cccc3c2)ncn1 [Example 58, 6-(6-Amino-pyrimidin-4-ylsulfanyl)-naphthalene-1-carboxylic acid (3-trifluoromethyl-phenyl)-amide] | 205
